In patent US8710065B2, “Tricyclic inhibitors of kinases” (AbbVie Inc., priority 2011, dated 2014) one finds Ki data, which are given here for 30 compounds.

As a reminder, the Ki is a dissociation constant, usually derived from enzyme kinetics or from competition with a known ligand.

T1 sequence (P30291 whole entry): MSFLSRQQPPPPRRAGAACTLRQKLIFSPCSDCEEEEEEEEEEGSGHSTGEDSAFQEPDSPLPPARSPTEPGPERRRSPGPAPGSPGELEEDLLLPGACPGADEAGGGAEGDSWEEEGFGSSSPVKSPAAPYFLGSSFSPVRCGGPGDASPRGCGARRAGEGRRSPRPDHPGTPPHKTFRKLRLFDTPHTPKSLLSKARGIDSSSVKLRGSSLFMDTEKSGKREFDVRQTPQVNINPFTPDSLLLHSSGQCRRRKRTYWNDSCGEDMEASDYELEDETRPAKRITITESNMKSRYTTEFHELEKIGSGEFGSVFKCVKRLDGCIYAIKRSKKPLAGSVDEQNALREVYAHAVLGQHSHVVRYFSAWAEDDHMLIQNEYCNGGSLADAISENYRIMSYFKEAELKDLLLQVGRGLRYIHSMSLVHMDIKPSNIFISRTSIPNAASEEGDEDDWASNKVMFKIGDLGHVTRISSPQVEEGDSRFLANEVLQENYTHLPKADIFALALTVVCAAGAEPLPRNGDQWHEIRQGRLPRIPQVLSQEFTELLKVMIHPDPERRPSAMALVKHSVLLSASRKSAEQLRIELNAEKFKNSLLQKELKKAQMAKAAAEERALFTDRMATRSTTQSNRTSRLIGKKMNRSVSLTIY

This assay has as its target T1, GST-tagged-Wee1 kinase (Homo sapiens, UniProt P30291).
T1 construct: purchased Carnabio (Carna Biosciences) 05-177
Kind of assay: Wee1 time-resolved fluorescence equilibrium binding assay (displacement of Oregon Green-labeled ATP-competitive kinase probe). The settings on record: read-out: Wee-1 inhibition (Ki). The method, then:
Wee1 kinase was assayed using a time-resolved fluorescence equilibrium binding assay monitoring displacement of a rapidly reversible Oregon Green-labeled ATP-competitive kinase probe (N-(2-(2-(2-(4-(4-(5-chloro-4-(2-(1-hydroxycyclobutyl)thiazol-5-yl)-1H-pyrrolo[2,3-b]pyridin-2-yl)phenyl)piperazin-1-yl)ethoxy)ethoxy)ethyl)-2′,7′-difluoro-3′,6′-dihydroxy-3-oxo-3H-spiro[isobenzofuran-1,9′-xanthene]-5-carboxamide) by competitive Wee1 inhibitors.
Table 1 depicts enzyme inhibition data (Ki) for exemplary compounds.
Regarding `CCN(CC)CCOc1ccc(Nc2ncc3c(=O)n(-c4ccccc4Cl)c4nccn4c3n2)cc1` [Example 44, 6-(2-chlorophenyl)-2-({4-[2-(diethylamino)ethoxy]phenyl}amino)imidazo[1,2-a]pyrimido[5,4-e]pyrimidin-5(6H)-one], the Ki was less than 0.01 µM.

For the compound `O=c1c2cnc(Nc3ccc(-c4cccnc4)cc3)nc2n2ccnc2n1-c1ccccc1Cl` [Example 45, 6-(2-chlorophenyl)-2-{[4-(pyridin-3-yl)phenyl]amino}imidazo[1,2-a]pyrimido[5,4-e]pyrimidin-5(6H)-one], the Ki lay in the range of 0.01 to 0.1 µM.

As for `O=C(N[C@H]1CC[C@H](O)CC1)c1ccc(Nc2ncc3c(=O)n(-c4ccccc4Cl)c4nccn4c3n2)cc1` [Example 46, 4-{[6-(2-chlorophenyl)-5-oxo-5,6-dihydroimidazo[1,2-a]pyrimido[5,4-e]pyrimidin-2-yl]amino}-N-(trans-4-hydroxycyclohexyl)benzamide], the Ki lay within 0.01 to 0.1 µM.

Consider `CCNC(=O)c1ccc(Nc2ncc3c(=O)n(-c4ccccc4Cl)c4nccn4c3n2)cc1` [Example 47, 4-{[6-(2-chlorophenyl)-5-oxo-5,6-dihydroimidazo[1,2-a]pyrimido[5,4-e]pyrimidin-2-yl]amino}-N-ethylbenzamide], for which the Ki fell in the range of 0.01 to 0.1 µM.

For `O=C(c1ccc(Nc2ncc3c(=O)n(-c4ccccc4Cl)c4nccn4c3n2)cc1)N1CCC(O)CC1` [Example 48, 6-(2-chlorophenyl)-2-({4-[(4-hydroxypiperidin-1-yl)carbonyl]phenyl}amino)imidazo[1,2-a]pyrimido[5,4-e]pyrimidin-5(6H)-one], the Ki lay within 0.01 to 0.1 µM.

Regarding `O=C(Nc1ccncc1)c1ccc(Nc2ncc3c(=O)n(-c4ccccc4Cl)c4nccn4c3n2)cc1` [Example 49, 4-{[6-(2-chlorophenyl)-5-oxo-5,6-dihydroimidazo[1,2-a]pyrimido[5,4-e]pyrimidin-2-yl]amino}-N-(pyridin-4-yl)benzamide], the inhibition constant (Ki) was 0.01 to 0.1 µM.

Regarding `CCN(CC)CCCOc1ccc(Nc2ncc3c(=O)n(-c4ccccc4Cl)c4nccn4c3n2)cc1F` [Example 50, 6-(2-chlorophenyl)-2-({4-[3-(diethylamino)propoxy]-3-fluorophenyl}amino)imidazo[1,2-a]pyrimido[5,4-e]pyrimidin-5(6H)-one], the Ki is less than 0.01 µM.

For the compound `CN1CCN(CCOc2ccc(Nc3ncc4c(=O)n(-c5ccccc5Cl)c5nccn5c4n3)cc2F)CC1` [Example 51, 6-(2-chlorophenyl)-2-({3-fluoro-4-[2-(4-methylpiperazin-1-yl)ethoxy]phenyl}amino)imidazo[1,2-a]pyrimido[5,4-e]pyrimidin-5(6H)-one], the Ki is less than 0.01 µM.

Turning to `COCCN1CCc2ccc(Nc3ncc4c(=O)n(-c5ccccc5Cl)c5nccn5c4n3)cc2C1` [Example 52, 6-(2-chlorophenyl)-2-{[2-(2-methoxyethyl)-1,2,3,4-tetrahydroisoquinolin-7-yl]amino}imidazo[1,2-a]pyrimido[5,4-e]pyrimidin-5(6H)-one], the Ki was less than 0.01 µM.

Turning to `CN1Cc2cc(Nc3ncc4c(=O)n(-c5ccccc5Cl)c5nccn5c4n3)ccc2C(C)(C)C1` [Example 53, 6-(2-chlorophenyl)-2-[(2,4,4-trimethyl-1,2,3,4-tetrahydroisoquinolin-7-yl)amino]imidazo[1,2-a]pyrimido[5,4-e]pyrimidin-5(6H)-one], the Ki was less than 0.01 µM.

As for `Cc1c(O)cccc1-n1c(=O)c2cnc(Nc3ccccc3)nc2n2ccnc12` [Example 54, 6-(3-hydroxy-2-methylphenyl)-2-(phenylamino)imidazo[1,2-a]pyrimido[5,4-e]pyrimidin-5(6H)-one], the Ki lay within 0.01 to 0.1 µM.

In the case of `CN1CCN(c2ccc(Nc3ncc4c(=O)n(-c5c(Cl)cccc5Cl)c5nccn5c4n3)cc2)CC1` [Example 55, 6-(2,6-dichlorophenyl)-2-{[4-(4-methylpiperazin-1-yl)phenyl]amino}imidazo[1,2-a]pyrimido[5,4-e]pyrimidin-5(6H)-one], the Ki was less than 0.01 µM.

Take `Nc1ccc(Nc2ncc3c(=O)n(-c4ccccc4Cl)c4nccn4c3n2)cc1` [Example 56, 2-[(4-aminophenyl)amino]-6-(2-chlorophenyl)imidazo[1,2-a]pyrimido[5,4-e]pyrimidin-5(6H)-one]: the Ki is 0.01 to 0.1 µM.

`CC(=O)Nc1ccc(Nc2ncc3c(=O)n(-c4ccccc4Cl)c4nccn4c3n2)cc1` [Example 57, N-(4-{[6-(2-chlorophenyl)-5-oxo-5,6-dihydroimidazo[1,2-a]pyrimido[5,4-e]pyrimidin-2-yl]amino}phenyl)acetamide]: the Ki was in the range of 0.01 to 0.1 µM.

With `O=C(Nc1ccc(Nc2ncc3c(=O)n(-c4ccccc4Cl)c4nccn4c3n2)cc1)C1CCCC1` [Example 58, N-(4-{[6-(2-chlorophenyl)-5-oxo-5,6-dihydroimidazo[1,2-a]pyrimido[5,4-e]pyrimidin-2-yl]amino}phenyl)cyclopentanecarboxamide], the Ki lay in the range of 0.01 to 0.1 µM.

On to `O=C(Nc1ccc(Nc2ncc3c(=O)n(-c4ccccc4Cl)c4nccn4c3n2)cc1)C1CCC(O)CC1` (stereo not drawn) [Example 59, N-(4-{[6-(2-chlorophenyl)-5-oxo-5,6-dihydroimidazo[1,2-a]pyrimido[5,4-e]pyrimidin-2-yl]amino}phenyl)-4-hydroxycyclohexanecarboxamide], for which the Ki is 0.01 to 0.1 µM.

Take `CN1CCC(C(=O)Nc2ccc(Nc3ncc4c(=O)n(-c5ccccc5Cl)c5nccn5c4n3)cc2)CC1` [Example 60, N-(4-{[6-(2-chlorophenyl)-5-oxo-5,6-dihydroimidazo[1,2-a]pyrimido[5,4-e]pyrimidin-2-yl]amino}phenyl)-1-methylpiperidine-4-carboxamide]: the Ki was less than 0.01 µM.

As to `O=C(Nc1ccc(Nc2ncc3c(=O)n(-c4ccccc4Cl)c4nccn4c3n2)cc1)c1ccncc1` [Example 61, N-(4-{[6-(2-chlorophenyl)-5-oxo-5,6-dihydroimidazo[1,2-a]pyrimido[5,4-e]pyrimidin-2-yl]amino}phenyl)pyridine-4-carboxamide], the inhibitory constant (Ki) is less than 0.01 µM.

`Cc1cccc(C)c1-n1c(=O)c2cnc(Nc3ccc4c(c3)CN(C)CC43CC3)nc2n2ccnc12` [Example 62, 6-(2,6-dimethylphenyl)-2-[(2′-methyl-2′,3′-dihydro-1′H-spiro[cyclopropane-1,4′-isoquinolin]-7′-yl)amino]imidazo[1,2-a]pyrimido[5,4-e]pyrimidin-5(6H)-one]: the Ki is less than 0.01 µM.

Regarding `O=c1c2cnc(Nc3ccc(N4CCN(Cc5cccc(Cl)c5)CC4)cc3)nc2n2ccnc2n1-c1ccccc1Cl` [Example 63, 2-({4-[4-(3-chlorobenzyl)piperazin-1-yl]phenyl}amino)-6-(2-chlorophenyl)imidazo[1,2-a]pyrimido[5,4-e]pyrimidin-5(6H)-one], the Ki lay in the range of 0.01 to 0.1 µM.

With `COCCN1CCN(c2ccc(Nc3ncc4c(=O)n(-c5ccccc5Cl)c5nccn5c4n3)cc2)CC1` [Example 64, 6-(2-chlorophenyl)-2-({4-[4-(2-methoxyethyl)piperazin-1-yl]phenyl}amino)imidazo[1,2-a]pyrimido[5,4-e]pyrimidin-5(6H)-one], the Ki is less than 0.01 µM.

On to `COc1cc(Nc2ncc3c(=O)n(-c4ccccc4Cl)c4nccn4c3n2)ccc1N1CCN(C)CC1` [Example 65, 6-(2-chlorophenyl)-2-{[3-methoxy-4-(4-methylpiperazin-1-yl)phenyl]amino}imidazo[1,2-a]pyrimido[5,4-e]pyrimidin-5(6H)-one], for which the Ki is less than 0.01 µM.

Take `COc1cc(Nc2ncc3c(=O)n(-c4ccccc4Cl)c4nccn4c3n2)ccc1N1CCN(C(C)C)CC1` [Example 66, 6-(2-chlorophenyl)-2-({3-methoxy-4-[4-(propan-2-yl)piperazin-1-yl]phenyl}amino)imidazo[1,2-a]pyrimido[5,4-e]pyrimidin-5(6H)-one]: the Ki was less than 0.01 µM.

For the compound `COc1cc(Nc2ncc3c(=O)n(-c4ccccc4Cl)c4nccn4c3n2)ccc1OCCN1CCN(C)CC1` [Example 67, 6-(2-chlorophenyl)-2-({3-methoxy-4-[2-(4-methylpiperazin-1-yl)ethoxy]phenyl}amino)imidazo[1,2-a]pyrimido[5,4-e]pyrimidin-5(6H)-one], the Ki was less than 0.01 µM.

Consider `O=c1c2cnc(Nc3ccccc3)nc2n2ccnc2n1-c1cccc(O)c1` [Example 68, 6-(3-hydroxyphenyl)-2-(phenylamino)imidazo[1,2-a]pyrimido[5,4-e]pyrimidin-5(6H)-one], for which the inhibitory constant (Ki) lay in the range of 0.01 to 0.1 µM.

For the compound `Cc1ccc(Nc2ncc3c(=O)n(-c4ccccc4Cl)c4nccn4c3n2)cc1` [Example 69, 6-(2-chlorophenyl)-2-[(4-methylphenyl)amino]imidazo[1,2-a]pyrimido[5,4-e]pyrimidin-5(6H)-one], the Ki lay in the range of 0.01 to 0.1 µM.

For the compound `O=c1c2cnc(Nc3ccc(C4CCCCN4)cc3)nc2n2ccnc2n1-c1ccccc1Cl` (stereo not drawn) [Example 70, 6-(2-chlorophenyl)-2-{[4-(piperidin-2-yl)phenyl]amino}imidazo[1,2-a]pyrimido[5,4-e]pyrimidin-5(6H)-one], the Ki was less than 0.01 µM.

Consider `O=c1c2cnc(Nc3ccc(C4CCCN4)cc3)nc2n2ccnc2n1-c1ccccc1Cl` (stereo not drawn) [Example 71, 6-(2-chlorophenyl)-2-{[4-(pyrrolidin-2-yl)phenyl]amino}imidazo[1,2-a]pyrimido[5,4-e]pyrimidin-5(6H)-one], for which the Ki was less than 0.01 µM.

For `O=c1c2cnc(Nc3ccc(C4CCNC4)cc3)nc2n2ccnc2n1-c1ccccc1Cl` (stereo not drawn) [Example 72, 6-(2-chlorophenyl)-2-{[4-(pyrrolidin-3-yl)phenyl]amino}imidazo[1,2-a]pyrimido[5,4-e]pyrimidin-5(6H)-one], the Ki is less than 0.01 µM.

With `CN1Cc2cc(Nc3ncc4c(=O)n(-c5c(Cl)cccc5Cl)c5nccn5c4n3)ccc2C2(CC2)C1` [Example 73, 6-(2,6-dichlorophenyl)-2-[(2′-methyl-2′,3′-dihydro-1′H-spiro[cyclopropane-1,4′-isoquinolin]-7′-yl)amino]imidazo[1,2-a]pyrimido[5,4-e]pyrimidin-5(6H)-one], the Ki is less than 0.01 µM.
